Some test systems named below: Klebsiella pneumoniae; Escherichia coli; Escherichia coli E44813; Candida krusei ATCC 6258.
Common to all, as to assay: ≥ marks a high value that may be exact or a test limit, other limits are often not marked, values filed in µg/mL are converted to µM
Test [1] deals with Streptococcus pneumoniae ATCC 49619.
The subject of test [2] is Salmonella typhimurium ATCC 50013.
Test [3] deals with Escherichia coli ATCC 25922.
Test [4] deals with Shigella dysenteriae ATCC 51302.
In test [5] the test system is Pseudomonas aeruginosa ATCC 27853.
Test [6] relates to Staphylococcus aureus ATCC 25923.
The test system of test [7] is Bacillus subtilis ATCC 9372.
Test [8] relates to Staphylococcus aureus SH1000.
For test [9], the system named is Pseudomonas aeruginosa ATCC 47085.
Test [10] deals with Acinetobacter baumannii ATCC 19606.
Test [11] concerns Escherichia coli D31 CGSC 5165.
Test [12] relates to Staphylococcus aureus ATCC 35556.
Test [13] deals with Elizabethkingia meningoseptica CCUG 4310.
Test [14] relates to Burkholderia cepacia SMC 71.
Test [15] relates to Providencia stuartii W03FI0001.
Test [16] deals with Pseudomonas aeruginosa 891.
Test [17] relates to Pseudomonas aeruginosa 885149.
Test [18] deals with Morganella morganii W03VA1342.
Test [19] deals with Stenotrophomonas maltophilia PT4/99.
The test system of test [20] is Acinetobacter baumannii AB1MG.
In test [21] the test system is Enterobacter cloacae W03AN0041.
In test [22] the test system is Citrobacter freundii W99FI00007.
Test [23] relates to Staphylococcus aureus ATCC 29213.
Test [24] concerns Acinetobacter baumannii AB7MG.
For test [25], the system named is Staphylococcus aureus MIU-68A.
Test [26] concerns Proteus mirabilis W99FI0089.
Test [27] relates to Pseudomonas aeruginosa VA463/98.
In test [28] the test system is Klebsiella aerogenes W03BG0067.
Test [29] relates to Serratia marcescens W99FI0111.
Test [30] relates to Klebsiella oxytoca W99FI00049.
Test [31] has as its system Proteus mirabilis W03VA1144.
For test [32], the system named is Salmonella enterica subsp. enterica serovar Choleraesuis C78-1.
Test [33] deals with Staphylococcus epidermidis LY8.
The subject of test [34] is Shigella flexneri CICC 21534.
The test system of test [35] is Pasteurella multocida C48-3.
The subject of test [36] is Salmonella typhimurium SL1344.
The subject of test [37] is Listeria monocytogenes CICC 21533.
Test [38] has as its system Bacillus subtilis CICC 24434.
Test [39] has as its system Mannheimia haemolytica 82-25.
Test [40] deals with Enterococcus faecalis ATCC 29212.
Test [41] has as its system Serratia marcescens ATCC 14756.
The subject of test [42] is Pseudomonas aeruginosa ATCC 27312.
Test [43] deals with Klebsiella pneumoniae ATCC 10031.
Test [44] has as its system Escherichia coli ATCC 12795.

Values after ≈ are worked out from the molar mass of the structure shown.

What is called MIC is the lowest concentration that inhibits growth of the organism. For `CC(C)C[C@H](NC(=O)[C@@H](NC(=O)CNC(=O)[C@H](C)NC(=O)[C@H](CC(C)C)NC(=O)[C@H](CS)NC(=O)[C@H](CCCN=C(N)N)NC(=O)[C@H](C)NC(=O)[C@H](CC(C)C)NC(=O)CN)[C@@H](C)O)C(=O)O` [GLARCLAGTL], the MIC in test [1] came to 16.4 µM (≈ 16 µg/mL); in test [2], 16.4 µM (≈ 16 µg/mL); in test [3], 8.21 µM (≈ 8 µg/mL); in test [4], 16.4 µM (≈ 16 µg/mL); in [5], 8.21 µM (≈ 8 µg/mL); in [6], 65.7 µM (≈ 64 µg/mL). Further, the MIC in [7] is 8.21 µM (≈ 8 µg/mL).

The compound `CC[C@H](C)[C@H](NC(=O)[C@H](CC(=O)O)NC(=O)[C@H](Cc1ccccc1)NC(=O)[C@H](CC(C)C)NC(=O)CN)C(=O)N[C@H](C(=O)N[C@@H](CCCCN)C(=O)N[C@@H](CCCCN)C(=O)N[C@@H](CC(C)C)C(=O)N[C@@H](CC(C)C)C(=O)N[C@@H](CCCCN)C(=O)N[C@@H](CC(C)C)C(=O)N[C@@H](CC(C)C)C(=O)N[C@@H](CCCCN)C(N)=O)C(C)C` [GLFDIVKKLLKLLK] showed an MIC in test [8] of at least 100 µM.

On to `CC[C@H](C)[C@H](NC(=O)[C@H](CCCCN)NC(=O)CNC(=O)[C@H](CC(C)C)NC(=O)[C@@H](NC(=O)[C@H](C)NC(=O)[C@H](CCCCN)NC(=O)CNC(=O)[C@H](C)NC(=O)CNC(=O)[C@H](CCCCN)NC(=O)[C@H](CCSC)NC(=O)[C@H](CCCCN)NC(=O)[C@@H](NC(=O)[C@H](Cc1c[nH]c2ccccc12)NC(=O)[C@H](CC(C)C)NC(=O)[C@H](CCC(N)=O)NC(=O)[C@H](CCCCN)NC(=O)[C@H](CC(C)C)NC(=O)[C@@H](N)CC(C)C)[C@@H](C)O)C(C)C)C(=O)N[C@@H](CCCCN)C(=O)NCC(=O)N[C@@H](CC(C)C)C(=O)N[C@@H](CC(C)C)C(=O)O` [LLKQLWTKMKGAGKAVLGKIKGLL], for which the minimal inhibitory concentration (MIC) is 7.5 µM (≈ 19.5 µg/mL) in test [9], 0.94 µM (≈ 2.44 µg/mL) in test [10], 0.94 µM (≈ 2.44 µg/mL) in test [11] and 1.88 µM (≈ 4.88 µg/mL) in test [12].

Regarding `CC[C@H](C)[C@H](NC(=O)[C@H](CCCCN)NC(=O)[C@H](CCCCN)NC(=O)[C@@H](N)CCC(N)=O)C(=O)N[C@@H](CCCN=C(N)N)C(=O)N[C@H](C(=O)N[C@@H](CCCN=C(N)N)C(=O)N[C@@H](CC(C)C)C(=O)N[C@@H](CO)C(=O)N[C@@H](C)C(=O)O)C(C)C` [QKKIRVRLSA], the MIC against Klebsiella pneumoniae is 6.68 µM (≈ 8 µg/mL); in the test on Escherichia coli it was 6.68 µM (≈ 8 µg/mL); in test [13], at least 107 µM; in test [14], at least 53.4 µM; in test [15], at least 107 µM; in test [3], 3.34 µM (≈ 4 µg/mL). The MIC was 6.68 µM (≈ 8 µg/mL) in test [16]; 6.68 µM (≈ 8 µg/mL) in test [17]; at least 107 µM in test [18]; at least 107 µM in test [19]; 13.4 µM (≈ 16 µg/mL) in test [20]; 3.34 µM (≈ 4 µg/mL) in test [21]. The MIC in test [22] is 13.4 µM (≈ 16 µg/mL); in test [23], above 53.4 µM; in test [24], 26.7 µM (≈ 32 µg/mL); in test [25], at least 107 µM; in [26], at least 107 µM; in test [27], 3.34 µM (≈ 4 µg/mL). Besides, the MIC in test [28] was 6.68 µM (≈ 8 µg/mL); in test [29] it was at least 107 µM; in test [30], at least 53.4 µM; in test [5], 3.34 µM (≈ 4 µg/mL); in [31], at least 53.4 µM; in test [6] it was above 107 µM.

Consider `CC[C@H](C)[C@H](NC(=O)[C@@H](NC(=O)[C@H](Cc1ccccc1)NC(=O)[C@H](CCCCN)NC(=O)[C@@H]1CCCN1C(=O)[C@H](CCCCN)NC(=O)[C@H](CCC(N)=O)NC(=O)[C@@H]1CCCN1C(=O)[C@H](CCCN=C(N)N)NC(=O)[C@H](CCCN=C(N)N)NC(=O)[C@@H](NC(=O)[C@H](CCCN=C(N)N)NC(=O)[C@H](Cc1c[nH]c2ccccc12)NC(=O)[C@H](CC(C)C)NC(=O)[C@H](CCCN=C(N)N)NC(=O)[C@H](CC(=O)O)NC(=O)[C@@H](NC(=O)[C@@H](NC(=O)[C@@H](N)CCCN=C(N)N)[C@@H](C)CC)[C@@H](C)CC)C(C)C)C(C)C)C(=O)N[C@H](C(=O)N[C@@H](Cc1c[nH]c2ccccc12)C(=O)N[C@H](C(=O)N[C@@H](CCCN=C(N)N)C(=O)O)C(C)C)C(C)C` [RIIDRLWRVRRPQKPKFVIVWVR], for which the MIC in test [32] is 0.129 µM (≈ 0.39 µg/mL); in test [33], 4.14 µM (≈ 12.5 µg/mL); in test [34], 24.9 µM (≈ 75 µg/mL); against Escherichia coli E44813, 2.07 µM (≈ 6.25 µg/mL); in [35], 0.259 µM (≈ 0.78 µg/mL); in [36], 0.259 µM (≈ 0.78 µg/mL). Also, the MIC is 20.7 µM (≈ 62.5 µg/mL) in test [37], 0.259 µM (≈ 0.78 µg/mL) in test [38] and 0.0041 µM (≈ 0.0124 µg/mL) in [6].

With `CC(C)[C@H](N)C(=O)N[C@@H](CC(=O)O)C(=O)N[C@@H](CC(=O)O)C(=O)N[C@@H](CC(=O)O)C(=O)N[C@@H](CC(=O)O)C(=O)N[C@@H](CCCCN)C(=O)O` [VDDDDK], the MIC in the test on Candida krusei ATCC 6258 was at least 2770 µM; in test [39] it was at least 160 µM; in test [40], 2670 µM (≈ 1880 µg/mL); in test [41], at least 3000 µM; in test [23] it was 1080 µM (≈ 762 µg/mL); in test [42], at least 1500 µM. The MIC in test [43] is at least 850 µM; in test [44] it was at least 900 µM.

(Values after DBAASP.)
